Measurements: EP0452507A1, “MEDICINE COMPRISING TOCOPHERYL GLYCOSIDE AS ACTIVE INGREDIENT” (NIPPON HYPOX LABORATORIES INCORPORATED, priority 1989, dated 1991)
Where two headings read alike, the source gives them in different places.

What was measured:
IgE antibody = assay type: in vivo, rats; settings: for IgE antibody amount in serum, Average value: group average, maximum dilution of serum showing positive reaction
Description: At first, 20 male SD rats weighing 180 to 220 g were prepared. Egg-white albumin in an amount of 1 mg per rat was prepared as an antigen to induce the IgE antibody-antigen mediating immune response. Further, a mixture of 20 mg/rat of aluminum hydroxide with 0.6 mi/rat of pertussis vaccine was prepared as an immune aid (adjuvant).
Then, the above antigen and the above adjuvant were equally administered intracutaneously into the four footpads of each rat for sensitization.
24 Hours after the sensitization, the footpad swelling of each rat was measured by volumetry to determine the swelling ratio (unit: %). Then, the rats were separated into four groups each consisting of 5 rats such that the average swelling ratio of one group was nearly equal to that of another group.
Thereafter, one of the four groups was used as Control group, and a physiological saline solution of 10 % Nikkol (trade name, dissolving aid, supplied by Nikko Chemical Co., Ltd.) was administered intraperitoneally to each rat for the 11 consecutive days after the group separation, and on 15th day after the group separation, the serum of each rat was collected, and measured for an IgE antibody amount by means of a 48-hour homologous PCA reaction (passive cutaneous anaphylaxis reaction) as an index. In addition, the IgE antibody amount is shown in terms of a maximum dilution (unit: %) of serum showing positive reaction (blue spot having a diameter of not less than 5 mm).
Two groups of the remaining three groups were used as Example groups ⑥ and 0. A physiological saline solution of 10 % Nikkol containing VIE-MAN was administered intraperitoneally to each rat of Example group ⑥ in such a dose that the amount of VIE-MAN was 30 mg/kg/day for 11 days after the group separation. And, a physiological saline solution of 10 % Nikkol containing VIE-MAN was administered intraperitoneally to each rat of Example group 0 every other day (number of days for administration: 6 days) in such a dose that the amount of VIE-MAN was 100 mg/kg/day for 11 days after the group separation. Then, on 15th day after the group separation, the serum of each rat was collected, and measured for an IgE antibody amount in the same manner as that for Control group.
One remaining group of the four groups was used as Comparative Example group @. A physiological saline solution of 10 % Nikkol containing hydrocortisone which was an adrenocortical hormone preparation was administered intraperitoneally to each rat in such a dose that the amount of the hydrocortisone was 10 mg/kg/day for the consecutive 11 days after the group separation. Then, on 15th day after the group separation, the serum of each rat was collected, and measured for an IgE antibody amount in the same manner as that for Example groups 6 and ⑦.

adjuvant arthritis = adjuvant arthritis (Freund's complete adjuvant), right hind paw swelling by volumetry; assay type: in vivo, rats; settings: Example 6, Fig. 5; for inhibition activity against acute inflammation (before the 14th day) and adjuvant arthritis (after 17th day): VIE-MAN 10 and 30 mg/kg/day, depending upon the dose, indomethacin 10 mg/kg/day, intraperitoneally
Description: 24 male SD rats weighing 180 to 220 g were used, and measured for a size of the subplantar region of the right hind paw. As a substance to cause adjuvant arthritis, 0.05 ml/rat of Freund's complete adjuvant [ADJUVANT COMPLETEFREUND, trade name, supplied by Difco] was used.
Then, the above Freund's complete adjuvant was administered intracutaneously into the subplantar region of right hind paw of each rat, and 24 hours after the administration, the swelling on the right hind paw of each rat was measured by volumetry to determine a swelling ratio. The above rats were separated into four groups each consisting of 6 rats such that the average swelling ratio of one group was nearly equal to that of another group.
Thereafter, one out of the four groups was used as Control group. A physiological saline solution of 10 % Nikkol was administered intraperitoneally to each rat of this group for the consecutive 22 days after the group separation, and the swelling on the right hind paw was measured by volumetry every day after the administration of the physiological saline solution of 10 % Nikkol. The average of swelling ratios as a group for each day was determined on the basis of the values of the sizes of the subplantar regions of the right hind paws obtained by the measurement prior to the administration of the Freund's complete adjuvant.
The procedure for Control group was repeated except that a physiological saline solution of 10 % Nikkol containing VIE-MAN in place of the physiological saline solution of 10 % Nikkol was administered intraperitoneally in such a dose that the amount of VIE-MAN was 10 mg/kg/day.
The procedure for Control group was repeated except that a physiological saline solution of 10 % Nikkol containing VIE-MAN in place of the physiological saline solution of 10 % Nikkol was administered intraperitoneally in such a dose that the amount of VIE-MAN was 30 mg/kg/day.
The remaining one group was used as Comparative Example group ⓕ. The procedure for Example groups @ and @ was repeated except that a physiological saline solution of 10 % Nikkol containing indomethacin which was a nonsteroidal anti-inflammatory preparation (antipyretic analgesic antiphlogistic preparation) in place of the physiological saline solution of 10 % Nikkol was administered intraperitoneally in such a dose that the amount of the indomethacin was 10 mg/kg/day, and the average of swelling ratios as a group was determined.

Row | SMILES | inhibition activity against the IgE antibody production (IgE antibody; same test as Example 3 with VIE-GLU in place of VIE-MAN) | average of the swelling ratios (adjuvant arthritis; 10 and 30 mg/kg/day intraperitoneally for 22 days, versus Control group) | inhibition activity against acute inflammation (before the 14th day) and adjuvant arthritis (after 17th day) (adjuvant arthritis) | average value of the IgE antibody amounts as a group unit (IgE antibody; 30 mg/kg/day (11 days) or 100 mg/kg/day (6 days) intraperitoneally, versus Control group) | inhibition activity against the IgE antibody production (IgE antibody; Example 3 / Comparative Example 2, VIE-MAN 30 or 100 mg/kg/day, hydrocortisone 10 mg/kg/day, intraperitoneally) | IgE antibody amount in serum, Average value (IgE antibody; 30 mg/kg/day (total 11 days) intraperitoneally) | IgE antibody amount in serum, Average value (IgE antibody; 100 mg/kg/day (total 6 days) intraperitoneally) | activity against acute inflammation and adjuvant arthritis compared with VIE-MAN (adjuvant arthritis; indomethacin 10 mg/kg/day intraperitoneally)
1 | Cc1c(C)c2c(c(C)c1OC1OC(CO)C(O)C(O)C1O)CCC(C)(CCCC(C)CCCC(C)CCCC(C)C)O2 (racemic) [VIE-GLU, dl-α-tocopheryl-,8-D-glucoside] | excellent inhibition activity | – | – | – | – | – | – | –
2 | Cc1c(C)c2c(c(C)c1OC1OC(CO)C(O)C(O)C1O)CCC(C)(CCCC(C)CCCC(C)CCCC(C)C)O2 (racemic) [VIE-MAN, dl-a-tocopheryl-a-D-mannoside] | – | significantly lower than that of the swelling ratios of Control group | excellent inhibition activity | significantly lower than that of the IgE antibody amounts of Control group | excellent inhibition activity | 166.4 | 128.0 | –
3 | COc1ccc2c(c1)c(CC(=O)O)c(C)n2C(=O)c1ccc(Cl)cc1 [indomethacin, reference compound] | – | – | showed inhibitory activity against both acute inflammation and adjuvant arthritis | – | – | – | – | much lower than that of VIE-MAN
